Where “and” joins values, the source holds several entries; their conditions need not be identical. Equal entries are not always repeated. Entries after “also recorded” stand apart in the source; their conditions may differ. Where two headings read alike, the source gives them in different places.
Experiments:
[1] = Clinical pharmacokinetic study, plasma and urine, noncompartmental analysis; settings: for tmax: median [range]
[2] = Baseline: oral midazolam 2.5 mg alone; median [range]; ref Nguyen et al., 2021; cited from earlier work
CYP3A [3] = settings: cited from earlier work
[4] = Dissolution of goldenseal capsules in FaSSIF; assay type: physicochemical; settings: two goldenseal capsules in 250 ml FaSSIF, within 20 minutes
[5] = Apparent permeability, apical to basolateral, Caco-2 cell monolayers; assay type: in vitro ADME; settings: human
[6] = both, human, in vivo
CYP3A [7] = settings: HLMs, 2020, cited from earlier work
clinical = settings: both, human, in vivo, AUC0–12.5h, Observed
CYP3A [8] = assay: Allosterism of midazolam hydroxylation in HIMs by berberine; settings: for effect on 1’-hydroxymidazolam formation: reversible design
[9] = Time-dependent inhibition of midazolam 1’-hydroxylation in HIMs; settings: microsomal incubation mixture, 37 °C, aqueous buffer, kinetic from dmso stock
CYP3A [10] = assay: as above; settings: HIMs
CYP3A [11] = assay: IC50 shift experiment, midazolam 1’-hydroxylation in human intestinal microsomes
[12] = Baseline: oral midazolam 2.5 mg alone, geometric mean [90% CI]
[13] = 6-hour blood collection, ref Gurley et al., 2008

## OCc1ncc2n1-c1ccc(Cl)cc1C(c1ccccc1F)=NC2 [1’-Hydroxymidazolam, 1’-hydroxymidazolam]
[1]; [12]
  AUC0–12h: 29.0 [24.4–34.4] nM*h
  AUCinf: 33.1 [27.9–39.0] nM*h
  CLR: 0.17 [0.14–0.20] n = 15 l/h
  Cmax: 12.3 nM
  MP ratio (metabolite AUC0–12h to midazolam AUC0–12h): 0.47 [0.40–0.54]
  t1/2: 6.25 [5.27–7.40] h
[1]; Baseline: oral midazolam 2.5 mg alone
  tmax: 0.67 [0.33–1.00] h
[1]; Chronic exposure: goldenseal 1 g thrice daily for 6 days, midazolam 2.5 mg oral
  tmax: 0.67 [0.33–1.50] h

## Cc1ncc2n1-c1ccc(Cl)cc1C(c1ccccc1F)=NC2O (centres unmarked) [4-Hydroxymidazolam, 4-hydroxymidazolam]
[1]; [12]
  CLR: Concentrations of metabolites in urine were below the detectable limit
  MP ratio (metabolite AUC0–12h to midazolam AUC0–12h): 0.045 [0.039–0.051]
[1]; both, human, plasma, po, 2.5 mg, AUC0–12h, Baseline: oral midazolam 2.5 mg alone, geometric mean [90% CI]
  AUC(0-t): 2.78 nM·h
[1]; both, human, plasma, po, 2.5 mg, t1/2, Baseline: oral midazolam 2.5 mg alone, geometric mean [90% CI]
  half-life: 1.68 h
[1]; both, human, plasma, po, 2.5 mg, tmax, Baseline: oral midazolam 2.5 mg alone
  tmax: 1 h
[1]; both, human, plasma, po, tmax, Chronic exposure: goldenseal 1 g thrice daily for 6 days, midazolam 2.5 mg oral
  tmax: 1 h

## Cc1ncc2n1-c1ccc(Cl)cc1C(c1ccccc1F)=NC2 [Midazolam]
[2]
  tmax: 0.67 [0.33–1.00] h
CYP3A [3]; [13]
  midazolam half-life at baseline: 2.0 h
  midazolam half-life in the presence of goldenseal: 3.1 h
[1]; both, human, plasma and urine, po
  CL renal: 1.08 mL/min

## COc1ccc2cc3[n+](cc2c1OC)CCc1cc2c(cc1-3)OCO2 [berberine]
[4]
  total content dissolved: More than 80%
[5]
  Papp at 10 μM: 0.18 ×10⁻⁶ cm/s
[6]
  AUC0–12.5h, Observed: 7.81 [6.17–9.89] nM*h
CYP3A [7]; ref Chatterjee and Franklin, 2003, McDonald et al.
  TDI of CYP3A activity (midazolam 1’-hydroxylation), in words: demonstrated TDI
CYP3A [7]; ref McDonald et al.
  IC50 (reversible inhibition): unattainable
  kinact/KI: 21.7 M⁻¹ s⁻¹
CYP3A [3]; berberine 300 mg thrice daily × 14 days, ref Guo et al., 2012
  increase in midazolam AUC: 40%
clinical
  AUC(0-t): 4.58 nM·h
CYP3A [8]; berberine 5–100 μM
  effect on midazolam 4-hydroxylation: inhibited
CYP3A [8]; particularly at midazolam ≤5 μM
  effect on 1’-hydroxymidazolam/4-hydroxymidazolam ratio: concentration-dependent increase
CYP3A [8]; midazolam ≤5 μM
  effect on 1’-hydroxymidazolam formation: activated
CYP3A [8]; midazolam ≥50 μM
  effect on 1’-hydroxymidazolam formation: inhibited
[9]
  solubility: ≤ 500 µM
CYP3A [10]
  inhibition of midazolam 1’-hydroxylation (in words): concentration-dependent and time-dependent inhibition
  kinact/KI: 4.07 M⁻¹ s⁻¹ and ~4 M⁻¹ s⁻¹
CYP3A [10]; time-dependent inhibition of midazolam 1’-hydroxylation
  KI: > 250 µM and 250 µM
CYP3A [10]; human, human intestinal microsomes, probe midazolam (40 μM), 1'-hydroxylation, kinact, time-dependent inhibition of midazolam 1’-hydroxylation
  kinact: ~0.001 s⁻¹
[1]; both, human, plasma, oral
  AUC(0-inf): 46.7 nM·h
CYP3A [11]; HIMs
  leftward shift in IC50 after preincubation with NADPH: not observed
CYP3A [11]; HIMs 0.05 mg/ml, 30 min preincubation in absence of NADPH, 4 μM midazolam
  IC50, midazolam 1’-hydroxylation: apparent activation; also recorded: unattainable
